The text below walks through data of paper PMC11774580 (Chemosphere, 2024).

The target of series [1] is T1, human OAT4 (Homo sapiens, UniProt Q9NSA0).
T1 sequence (Q9NSA0 1-550): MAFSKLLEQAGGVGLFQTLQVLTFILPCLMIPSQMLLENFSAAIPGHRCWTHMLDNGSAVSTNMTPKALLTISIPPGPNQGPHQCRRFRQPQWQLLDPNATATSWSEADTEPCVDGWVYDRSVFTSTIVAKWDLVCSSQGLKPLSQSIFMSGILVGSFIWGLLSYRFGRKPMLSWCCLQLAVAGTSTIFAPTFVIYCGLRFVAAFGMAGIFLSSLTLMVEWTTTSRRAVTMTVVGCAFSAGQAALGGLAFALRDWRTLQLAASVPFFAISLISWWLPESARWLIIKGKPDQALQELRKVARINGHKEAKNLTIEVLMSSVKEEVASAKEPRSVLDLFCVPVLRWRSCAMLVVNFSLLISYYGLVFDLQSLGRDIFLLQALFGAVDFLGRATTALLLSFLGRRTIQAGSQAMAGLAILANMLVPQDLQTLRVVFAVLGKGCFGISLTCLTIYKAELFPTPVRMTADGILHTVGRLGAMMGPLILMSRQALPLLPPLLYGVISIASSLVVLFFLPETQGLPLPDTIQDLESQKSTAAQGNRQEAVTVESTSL
Put plainly: hOAT4 substrate. Particulars: for hOAT4 uptake ratio, fold / hOAT4 uptake ratio, % above controls: 1 μM PFAS screen; for Transporter Uptake Ratio OAT4: 1 μM PFAS, threshold ≥ 2-fold; for Effect of probenecid co-treatment on hOAT4-mediated uptake: probenecid 1 mM. It is filed as in vitro ADME.

Series [2] addresses T2, human OAT1 (Homo sapiens, UniProt Q4U2R8).
T2 sequence (Q4U2R8 1-563): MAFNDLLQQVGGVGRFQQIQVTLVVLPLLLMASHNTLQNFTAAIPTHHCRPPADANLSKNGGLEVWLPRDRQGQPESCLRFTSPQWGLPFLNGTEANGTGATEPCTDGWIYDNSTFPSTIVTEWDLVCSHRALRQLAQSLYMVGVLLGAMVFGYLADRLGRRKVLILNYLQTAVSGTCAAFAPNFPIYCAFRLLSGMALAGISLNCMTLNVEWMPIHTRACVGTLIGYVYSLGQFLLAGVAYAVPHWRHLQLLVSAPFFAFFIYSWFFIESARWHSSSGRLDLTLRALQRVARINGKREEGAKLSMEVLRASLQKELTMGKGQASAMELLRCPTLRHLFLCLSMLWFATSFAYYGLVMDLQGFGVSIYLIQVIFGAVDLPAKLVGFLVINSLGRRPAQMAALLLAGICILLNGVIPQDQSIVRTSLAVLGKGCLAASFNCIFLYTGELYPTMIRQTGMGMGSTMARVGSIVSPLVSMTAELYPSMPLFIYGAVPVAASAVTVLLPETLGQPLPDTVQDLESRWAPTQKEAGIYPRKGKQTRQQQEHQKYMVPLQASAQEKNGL
Put plainly: hOAT1 substrate. Particulars: for Transporter Uptake Ratio OAT1: 1 μM PFAS, threshold ≥ 2-fold; for hOAT-mediated uptake (Fig. 3A, OAT1), fold: follow-up test, without probenecid.

The subject of series [3] is MDCKII-LE cell monolayers. The series can be described thus: Apparent permeability. Particulars: donor pH 7.4, receiver pH 7.4; 2 μM PFAS; 90 min; 0.4% BSA in receiver.
For series [4], the target named is T3, human OAT3 (Homo sapiens, UniProt Q8TCC7).
T3 sequence (Q8TCC7 1-542): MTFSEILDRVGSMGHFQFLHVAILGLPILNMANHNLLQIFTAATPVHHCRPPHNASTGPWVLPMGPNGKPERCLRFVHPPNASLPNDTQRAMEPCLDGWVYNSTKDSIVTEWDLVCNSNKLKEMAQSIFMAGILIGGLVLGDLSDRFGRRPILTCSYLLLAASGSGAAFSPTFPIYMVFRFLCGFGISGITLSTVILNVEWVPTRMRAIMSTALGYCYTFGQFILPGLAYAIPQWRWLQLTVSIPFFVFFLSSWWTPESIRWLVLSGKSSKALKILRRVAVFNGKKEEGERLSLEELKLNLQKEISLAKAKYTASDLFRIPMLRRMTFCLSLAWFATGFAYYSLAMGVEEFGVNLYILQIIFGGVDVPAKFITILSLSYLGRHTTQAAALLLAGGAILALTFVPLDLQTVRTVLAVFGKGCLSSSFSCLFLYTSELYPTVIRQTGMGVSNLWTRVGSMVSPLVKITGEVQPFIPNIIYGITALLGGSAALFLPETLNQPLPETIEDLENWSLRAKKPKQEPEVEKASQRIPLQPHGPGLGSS
The series can be described thus: hOAT3 substrate. Particulars: for hOAT3 uptake ratio, fold higher than mock transfected controls / hOAT3 uptake ratio, % higher than mock transfectants: 1 μM PFAS screen; for Transporter Uptake Ratio OAT3: 1 μM PFAS, threshold ≥ 2-fold; for hOAT3-mediated uptake, fold: follow-up test, without probenecid; for Effect of probenecid cotreatment on hOAT3-mediated uptake: probenecid 1 mM.

The target of series [5] is T3, human OAT3. Put plainly: OAT3 inhibition assay.
Series [6] addresses T2, human OAT1. Put plainly: OAT1 inhibition assay.
Setting [7] is: read-out: IC50 hOAT3 inhibition, probe [3H]-ES 0.1 μM, 30 min pre-incubation.

Values joined by “and” are separate entries in the source; they are usually repeats but may differ in a detail not shown here. Equal entries are not always repeated. Where two headings read alike, the source gives them in different places.

Turning to `O=S(=O)(O)C(F)(F)C(F)(F)C(F)(F)C(F)(F)F` [PFBS, Perfluorobutane sulfonic acid], in series [1], the “OAT4 substrate classification” value is listed as “strong substrates”; the “hOAT4 uptake ratio, fold” value is on record as “greater than 2 fold”; the “Transporter Uptake Ratio OAT4” value is “+ (denoted with a “+” to denote a threshold of ≥ 2-fold has been met and considered a substrate for the transporter)”; the “Effect of probenecid co-treatment on hOAT4-mediated uptake” value (“Effect … on hOAT4-mediated uptake” below) is “effectively inhibited”. Also, the “hOAT1 uptake ratio, % higher than controls” value in series [2] (1 μM PFAS screen) is 5–60%. Further, in series [3], the “Ph 7.4 A-B Papp” value was determined as 1.38 ×10⁻⁶ cm/s. In addition, in series [4], the “hOAT3 uptake ratio, fold higher than mock transfected controls” value is reported as 2.5–12 fold; the “Transporter Uptake Ratio OAT3” value is “+ (denoted with a “+” to denote a threshold of ≥ 2-fold has been met and considered a substrate for the transporter)”; the “hOAT3-mediated uptake, fold” value was 2.5–15 fold; the “Effect of probenecid cotreatment on hOAT3-mediated uptake” value (shortened to “Effect of probenecid cotreatment”) is listed as “markedly inhibited”.
As to `O=C(O)C(F)(F)C(F)(F)C(F)(F)C(F)(F)C(F)(F)C(F)(F)C(F)(F)C(F)(F)F` [PFNA, perfluorononanoic acid], in series [1], the “OAT4 substrate classification” value is reported as “strong substrates”; the “hOAT4 uptake ratio, fold” value was “greater than 2 fold”; the “Transporter Uptake Ratio OAT4” value is “+ (denoted with a “+” to denote a threshold of ≥ 2-fold has been met and considered a substrate for the transporter)”; the “Effect … on hOAT4-mediated uptake” value is recorded as “effectively inhibited”. Moreover, in series [5] (setting [7]), the concentration for half-maximal inhibition (IC50) was determined as 9.8 µM. The “Ph 7.4 A-B Papp” value in series [3] amounted to 3.77 ×10⁻⁶ cm/s. Also, in series [4], the “hOAT3 uptake ratio, fold higher than mock transfected controls” value is reported as 2.5–12 fold; the “Transporter Uptake Ratio OAT3” value is “+ (denoted with a “+” to denote a threshold of ≥ 2-fold has been met and considered a substrate for the transporter)”; the “hOAT3-mediated uptake, fold” value is 2.5–15 fold; the “Effect of probenecid cotreatment” value is “markedly inhibited”.
Consider `O=S(=O)(O)C(F)(F)C(F)(F)C(F)(F)C(F)(F)C(F)(F)C(F)(F)C(F)(F)C(F)(F)F` [PFOS, perfluorooctane sulfonic acid], for which, in series [1], the “OAT4 substrate classification” value is recorded as “relatively weak substrate” and the “hOAT4 uptake ratio, % above controls” value is ~ 20%. For the same compound, in series [3], the “Ph 7.4 A-B Papp” value was 14 ×10⁻⁶ cm/s and 14.04 ×10⁻⁶ cm/s. Further, the “hOAT3 uptake ratio, % higher than mock transfectants” value in series [4] is 30–50%.
As for `O=C(O)C(F)(F)C(F)(F)C(F)(F)C(F)(F)C(F)(F)C(F)(F)C(F)(F)C(F)(F)C(F)(F)F` [PFDA, perfluorodecanoic acid], the “Ph 7.4 A-B Papp” value in series [3] is 8.44 ×10⁻⁶ cm/s. In series [4], the “hOAT3 substrate classification” value is “weak substrate” and the “hOAT3 uptake ratio, % higher than mock transfectants” value is 30–50%.
In the case of `O=S(=O)(O)CCC(F)(F)C(F)(F)C(F)(F)C(F)(F)C(F)(F)C(F)(F)F` [6:2FTS, 6:2 fluorotelomer sulfonate], in series [1], the “hOAT4 uptake ratio, fold” value was “greater than 2 fold”; the “Transporter Uptake Ratio OAT4” value was “+ (denoted with a “+” to denote a threshold of ≥ 2-fold has been met and considered a substrate for the transporter)”. Moreover, in series [2], the “Transporter Uptake Ratio OAT1” value was “+ (denoted with a “+” to denote a threshold of ≥ 2-fold has been met and considered a substrate for the transporter)”; the “hOAT-mediated uptake (Fig. 3A, OAT1), fold” value is on record as ~ 4 fold. Also, the IC50 in series [5] (setting [7]) came to 11.3 µM. Besides, the “Ph 7.4 A-B Papp” value in series [3] worked out at 0.71 ×10⁻⁶ cm/s. Moreover, in series [4], the “hOAT3 uptake ratio, fold higher than mock transfected controls” value is 2.5–12 fold; the “Transporter Uptake Ratio OAT3” value is “+ (denoted with a “+” to denote a threshold of ≥ 2-fold has been met and considered a substrate for the transporter)”; the “hOAT3-mediated uptake, fold” value is given as 2.5–15 fold.
`O=C(O)C(F)(F)C(F)(F)C(F)(F)C(F)(F)C(F)(F)C(F)(F)C(F)(F)C(F)(F)C(F)(F)C(F)(F)F` [PFUDA, perfluoroundecanoic acid]: in series [3], the “Ph 7.4 A-B Papp” value is 11.56 ×10⁻⁶ cm/s.
As for `O=S(=O)(O)C(F)(F)C(F)(F)C(F)(F)C(F)(F)C(F)(F)C(F)(F)F` [PFHxS, perfluorohexane sulfonic acid], in series [1], the “OAT4 substrate classification” value is “strong substrates”; the “hOAT4 uptake ratio, fold” value was “greater than 2 fold”; the “Transporter Uptake Ratio OAT4” value is “+ (denoted with a “+” to denote a threshold of ≥ 2-fold has been met and considered a substrate for the transporter)”; the “Effect … on hOAT4-mediated uptake” value is on record as “not inhibited”. The “Fold difference in OAT4 uptake ratio between PFHxS and PFOS” value in series [1] (PFHxS versus PFOS) is recorded as ~ 2.5 fold. In series [5], this compound yielded an IC50 of 10.3 µM. Further, in series [4], the “hOAT3 uptake ratio, fold higher than mock transfected controls” value was 2.5–12 fold; the “Transporter Uptake Ratio OAT3” value is “+ (denoted with a “+” to denote a threshold of ≥ 2-fold has been met and considered a substrate for the transporter)”; the “hOAT3-mediated uptake, fold” value is 2.5–15 fold; the “Effect of probenecid cotreatment” value is “markedly inhibited”.
Regarding `O=C(O)C(F)(F)C(F)(F)C(F)(F)F` [PFBA, Perfluorobutanoic acid], the “Some level of inhibition against hOAT1 mediated transport” value in series [6] was “the only exceptions”. In series [5], the “Some level of inhibition against hOAT3 mediated transport” value is “the only exceptions”. In addition, the “Ph 7.4 A-B Papp” value in series [3] came to 0.93 ×10⁻⁶ cm/s. In series [4], the “hOAT3 substrate classification” value is reported as “weak substrate” and the “hOAT3 uptake ratio, % higher than mock transfectants” value is given as 30–50%. The hOAT3 uptake ratio in series [4] (statistically significant, below 2-fold cut-off) turned out to be 1.5.
Regarding `O=C(O)C(F)(F)C(F)(F)C(F)(F)C(F)(F)C(F)(F)F` [PFHxA, perfluorohexanoic acid], in series [1], the “OAT4 substrate classification” value is listed as “strong substrates”; the “hOAT4 uptake ratio, % above controls” value is reported as ~ 20%; the “Transporter Uptake Ratio OAT4” value was “+ (denoted with a “+” to denote a threshold of ≥ 2-fold has been met and considered a substrate for the transporter)”; the “Effect … on hOAT4-mediated uptake” value is “effectively inhibited”. Further, in series [2] (1 μM PFAS screen), the “hOAT1 uptake ratio, fold higher than the control” value is reported as ~ 2 fold. Moreover, in series [2], the “Transporter Uptake Ratio OAT1” value is “+ (denoted with a “+” to denote a threshold of ≥ 2-fold has been met and considered a substrate for the transporter)”; the “hOAT-mediated uptake (Fig. 3A, OAT1), fold” value is listed as ~ 2 fold. Further, the “Effect of probenecid co-treatment on hOAT1-mediated uptake” value in series [2] (probenecid 1 mM) is “markedly reduced”. In series [3], the “Ph 7.4 A-B Papp” value is 1.16 ×10⁻⁶ cm/s. In series [4], the “hOAT3 uptake ratio, fold higher than mock transfected controls” value is 2.5–12 fold; the “Transporter Uptake Ratio OAT3” value was “+ (denoted with a “+” to denote a threshold of ≥ 2-fold has been met and considered a substrate for the transporter)”; the “hOAT3-mediated uptake, fold” value is recorded as 2.5–15 fold; the “Effect of probenecid cotreatment” value is listed as “markedly inhibited”.
Consider `O=C(O)C(F)(F)C(F)(F)C(F)(F)C(F)(F)F` [PFPA, perfluoropentanoic acid], for which the “Effect … on hOAT4-mediated uptake” value in series [1] is recorded as “effectively inhibited”. In addition, the “Ph 7.4 A-B Papp” value in series [3] is 0.99 ×10⁻⁶ cm/s. Further, in series [4], the “hOAT3 uptake ratio, fold higher than mock transfected controls” value is listed as 2.5–12 fold; the “Transporter Uptake Ratio OAT3” value was “+ (denoted with a “+” to denote a threshold of ≥ 2-fold has been met and considered a substrate for the transporter)”; the “hOAT3-mediated uptake, fold” value is 2.5–15 fold; the “Effect of probenecid cotreatment” value is “markedly inhibited”.
